Reference: article PMC2585100 (Retrovirology, 2008)
Where two headings read alike, the source gives them in different places.

What was measured:
[1] = system: T20-sensitive HIV-1 strains (pre-ENF and JRCSF); test: Single-cycle infectivity assay, T20-sensitive strains, U373MG-CD4-CCR5-LTR-lacZ cells; assay type: cell-based; settings: P5 more potent than T20
Text: (§1) We constructed viruses bearing the envelope glycoproteins derived from virus populations present before and during T20 treatment of a patient who received T20 as part of a salvage therapy, as we reported earlier. […] Each chimeric proviral clone was obtained by replacing the AgeI-NheI fragment of a modified pNL4-3 vector (nt 6346 to 8287 in pNL4-3) by a AgeI-NheI PCR fragment amplified from the envelope subclone. Sequences of oligonucleotides used for PCR and site-directed mutagenesis can be provided upon request. […] [29].
(§2) These assays were performed as previously described. Two days before infection, U373MG-CD4-CCR5-LTR-lacZ cells were seeded into 96-well plates at a density of 2,000 cells/well. […] Forty hours after infection, cells were lysed using 100 μl/well of lysis buffer (5 mM MgCl2 and 0.1% NP-40 in 1× phosphate-buffered saline), prior to addition of 100 μl/well of chromogenic substrate (6 mM chlorophenol red-β-D-galactopyranoside; CPRG, Roche) in lysis buffer.

[2] = system: HIV-1Lai (X4 virus); test: Neutralization of HIV-1 infection of PBMC, intracellular p24 staining (X4 virus); assay type: cell-based; settings: peptide at 1 μM
Description: (§3) Neutralization of HIV-1 infectivity for PBMC was performed as previously described by analysing intracellular staining of p24 Ag after a single round of infection. […] PHA-stimulated PBMC (25 μl, 2 × 10^5 cells/well) were added to the mixture. After overnight incubation, 100 μl of culture medium containing 20 U/ml of IL-2 were added and cells were cultured for an additional 24 h at 37°C. For intracellular p24 Ag staining, cells were fixed with 4% paraformaldehyde for 20 min, permeabilized with 0.05% saponin and stained with a fluorescent anti-p24 mAb (PE-anti-p24, KC57 clone, Beckman Coulter, Hialeah, FL) as a 1/160 dilution in 1% BSA, 0.05% saponin in PBS (pH = 7.4) for 15–20 min at 4°C. The percentage of p24 positive cells was monitored by flow cytometry (FACScalibur with the XL software) by gating 20,000 events on the living cell population identified by forward- and side-scatter parameters.

[3] = system: HIV-1JRCSF (R5 virus); assay type: cell-based; settings: PBMC, peptide at 1 μM
Description: as §3

[4] = system: T20-resistant HIV-1 strains (ENF-1 and ENF-2); test: Single-cycle infectivity assay, T20-resistant strains, U373MG-CD4-CCR5-LTR-lacZ cells; assay type: cell-based; settings: at concentrations as much as 250- to 2000-fold higher than the IC50 of P5
Text: as §1, §2

[5] = system: primary human CD4+ T cells; test: Binding of peptides to CD4+ target cells (2F5 IgG, flow cytometry), primary cells; settings: 1 h at room temperature, RPMI 10% FCS, micro-molar range
Description: (§4) Binding of peptides was evaluated using either the lymphocytic cell line CD4^+- CEM-NK^r (NK-resistant) cells (NIH AIDS Reagent Programm, USA)or PHA-activated CD4^+ T cells purified from peripheral blood of 5 healthy donors using human CD4^+ T cells enrichment kit (StemCell Technologies Inc., France). 5 × 10^5 cells were incubated with indicated concentrations of peptide for 1 h at room temperature in a total volume of 50 microliter/μl of RPMI 10%FCS. After 2 wahses in cold medium, bound peptide was detected with the human IgG 2F5 (10 microg/μg), or irrelevant human IgG as control, for 1 h at 37°C followed anti-human IgG-FITC mAb (1:1000, Jackson ImmunoResearch, France). Binding of peptides to CD4^+ cells was evaluated by flow cytometry (FACSCalibur, Becton Dickinson) on 10^4 events, gated by forward and side scatter and analyzed for FL1 (FITC channel) using the Cytomix RXP software.

[6] = system: CD4+ CEM-NKr lymphocytic cell line; test: Binding of peptides to CD4+ target cells (2F5 IgG, flow cytometry), cell line; parameters: species or system human; settings: 1 h at room temperature, RPMI 10% FCS, micro-molar range
Description: as §4

[7] = parameters: method as in 2 sources, one per row (each row's own in cited_ref): ref 20 = [20]; PMID 17553560; doi:10.1016/j.ceca.2007.04.011; Yu H Alfsen A Tudor D Bomsel M The binding of HIV-1 gp41 membrane proximal domain to its mucosal receptor, galactosyl ceramide, is structure-dependent Cell Calcium 2008 43 73 82 17553560 10.1016/j.cec ||| ref 36 = [36]; PMID 17276993; doi:10.1074/jbc.M609148200; Liu S Jing W Cheung B Lu H Sun J Yan X Niu J Farmar J Wu S Jiang S HIV gp41 C-terminal heptad repeat contains multifunctional domains. Relation to mechanisms of action of anti-HIV peptides J Biol Chem; settings: Table 1, left column; cited from earlier work
[8] = system: HIV-Lai env mediated fusion of Hela-env-Lai cells with HeLa P4.2 (Hela-CD4-LTR-LacZ) cells; test: HIV-1 env-mediated cell-to-cell fusion assay (β-galactosidase read-out); assay type: cell-based; settings: for IC50: 6 h co-culture at 37°C, DMEM with calcium, others chemically synthesized; for inhibition of cell-cell fusion: peptide at 1 μM
Description: Fifteen minutes later, target cells (HeLa P4.2) were added to the wells (10^5 per well) and co-cultured for 6 h at 37°C. Then, cell-cell fusion was monitored by beta-galactosidase assay. Briefly, cells were lysed in 80 μl of lysis buffer (5% NP40 in PBS without CaCl2 and MgCl2) for 10 min and then centrifuged at 10,000 g for 5 min at 4°C. Equal volumes (50 μl) of lysate and reaction buffer (120 mM Na2HPO4, 80 mM NaH2PO4, 2 mM MgSO4, 20 mM KCl, 10 mM β-mercaptoethanol, 16 mM CPRG (chlorophenol red-β-D-galactopyranoside, Roche, France) were combined and incubated for 60 min at room temperature in the dark. The absorbance at 590 nm of each sample was measured.
Cell fusion experiments are convenient assays for analysis of the mechanism by which peptides inhibit virus entry into host cells. Hela-CD4-LTR-LacZ (P4.2) cells stably express the human CD4 molecule, CXCR4 and long terminal repeat (LTR) driven lacZ gene. Hela-env-Lai cells stably express HIV-Lai envelope glycoproteins gp120 and gp41, and the HIV-1 transactivator Tat. Fusion of Hela-Env-Lai cells and P4.2 cells results in transferring Tat to P4.2 cell cytosol. Tat in turn, transactivates the LTR and initiates transcription of the lacZ gene. The extent of fusion is directly related to β-galactosidase activity in cell lysates.
Different concentrations (≤ 1 μM) of peptides were incubated with HeLa-env-Lai cells in culture medium (DMEM) that contained calcium and magnesium, prior to addition of the P4.2 cells.

[9] = Far-UV circular dichroism, α-helical content; assay type: physicochemical; settings: 10 μM in PBS
Description: Far-UV circular dichroism (CD) was performed using 10 μM of each peptide solution in PBS. Each spectrum was recorded from 260 nm to 190 nm at 25°C by using a Jasco CD spectrophotometer (Jasco, Japan) with a cell path length of 0.05 cm. Spectra were collected as an average of three scans, with a scan speed of 20 nm/min and a response time of 2 sec. The control (solvent) CD spectra were subtracted to eliminate background effects. Data were reported in millidegrees and converted to molar ellipticity [θ] in units as follows: degree cm^2 dmol^-1. The percentage of α-helical content was estimated by assuming that a [θ]222 value of -33000 deg cm^2 dmol^-1corresponds to 100% α-helix.
CD spectroscopy is a practical and efficient method for secondary structure characterization of a protein or peptide.
Far-UV CD spectra were all recorded at room temperature, with a path-length of 0.05 cm. Peptide concentration was 10 microM in PBS, pH 7.2.

Substance: Enfuvirtide
- activity against T20-sensitive strains (in words) [1]: active
- inhibitory activity, X4 virus infection ([2]; PBMC): greater than 90%
- inhibition of PBMC infection by X4 virus (in words) ([2]; human PBMC, HIV-Lai): potent inhibition
- inhibitory activity, R5 virus infection [3]: greater than 90%
- inhibition of T20-resistant strains (in words) [4]: failed to inhibit
- binding to primary human CD4+ T cells (in words) [5]: unable to bind
- binding to CD4+ lymphocyte cell line CEM (in words) [6]: unable to bind
- [θ]222 [7]: -2 10^-3deg cm^2dmol^-1

Substance: LZ: peptide comprising the gp41 N-terminal leucine zipper domain, a.a. 560–594 (EAQQHLLQLTVWGIKQLQARILAVERYLKDQQLLG; gp41; UniProt P04578 560-594, looked up, fragment)
- IC50 ([8]; Table 2, right column, alone or in the presence of LZ, P7 recombinant, read-out: IC50 (nM, Mean ± S.D.)): > 1000 nM
- inhibition of cell-cell fusion [8]: negligible inhibition
- [θ]222 ([9]; Table 1, chemically synthesized peptides alone or with LZ): -4 10^-3deg cm^2dmol^-1

Substance: N36: gp41 NHR peptide a.a. 546–581, from the AIDS Research and Reference Reagent Program [Peptide N36]
- IC50 ([8]; Table 2, left column, peptides 50 to 1000 nM, P5L recombinant, read-out: IC50g (nM, Mean ± S.D.)): > 1000 nM
- inhibition of cell-cell fusion [8]: negligible inhibition
- [θ]222 ([9]; Table 1, left column, chemically synthesized peptides alone or with N36): -6 10^-3deg cm^2dmol^-1
